Measured values reported in publication PMC7570497, “Design, Synthesis and Functional Analysis of Cyclic Opioid Peptides with Dmt-Tic Pharmacophore” (Molecules, 2020).
Bridge positions count the residues as written; N and C are the ends. Square brackets hold non-standard residues; d marks the D form. Peptide text beside a SMILES is read from it. Phe(2,4-F2) = N[C@@H](Cc1ccc(F)cc1F)C(=O)O; d2Nal = N[C@H](Cc1ccc2ccccc2c1)C(=O)O; Dmt = Cc1cc(O)cc(C)c1C[C@H](N)C(=O)O; Tic = O=C(O)[C@@H]1Cc2ccccc2CN1; dDap = NC[C@@H](N)C(=O)O

Columns and labels:
[1] = target: T1, human KOR (Homo sapiens, UniProt P41145); test: Calcium mobilization assay, agonist mode, KOR; assay type: cell-based; conditions: for KOR pEC50 (CL95%) / KOR α ± SEM (efficacy, intrinsic activity): CHO cells co-expressing human KOR and Gαqi5, inactive = inactive up to 10 μM, n ≥ 5; for KOR pEC50 (CL95%): Fluo-4 AM, reference agonist dynorphin A, mean ± SEM; for KOR α ± SEM (efficacy, intrinsic activity): ratio of peptide Emax to Emax of dynorphin A
T1 construct: expressed in transfected cells; host or cells: CHO cells (gift from Prof. Girolamo Calo, Ferrara University)
T1 sequence (P41145 whole entry): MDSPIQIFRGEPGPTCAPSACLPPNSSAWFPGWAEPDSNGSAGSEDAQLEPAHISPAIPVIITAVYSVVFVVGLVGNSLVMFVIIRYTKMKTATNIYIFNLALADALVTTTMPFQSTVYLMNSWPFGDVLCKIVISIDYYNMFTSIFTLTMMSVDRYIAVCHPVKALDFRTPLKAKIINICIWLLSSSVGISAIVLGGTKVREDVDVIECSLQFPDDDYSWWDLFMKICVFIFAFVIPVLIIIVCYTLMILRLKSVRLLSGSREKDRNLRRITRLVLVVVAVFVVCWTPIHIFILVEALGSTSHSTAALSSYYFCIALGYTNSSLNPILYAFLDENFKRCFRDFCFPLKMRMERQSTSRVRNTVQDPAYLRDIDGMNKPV
Protocol: (§1) Calcium mobilization assay was performed as reported previously. CHO cells stably co-expressing human MOR or KOR and the C-terminally modified Gαqi5 and CHO cells co-expressing DOR and the GαqG66Di5 protein were used for the tests. Briefly, cells incubated for 24 h in 96-well black, clear-bottom plates were loaded with medium supplemented with probenecid (2.5 mmol/L), calcium-sensitive fluorescent dye Fluo-4 AM (3 μmol/L) and pluronic acid (0.01%) and kept at 37 °C for 30 min. Following aspiration of the loading solution and a washing step, serial dilutions of peptide stock solutions were added. Cells without peptides were treated as the control. […] Ligand efficacy was expressed as intrinsic activity (α) calculated as a ratio of the peptide Emax to Emax of the standard agonist.

[2] = Enzymatic stability in rat brain homogenate; assay type: in vitro ADME; conditions: rat brain homogenate 10 mg protein/mL in Tris.HCl 50 mM pH 7.4; 100 μL homogenate + 100 μL peptide (0.5 mM); 37 °C; 60 min; HPLC area %; three independent experiments; read-out: Enzymatic Stability Area [%]: amount of peptide remained after 60 min incubation with rat brain homogenate
Protocol: The metabolic stability of analogs was assessed in the presence of the rat brain homogenate. All new cyclopeptides remained almost intact after 60 min incubation with the homogenate (Table 1).
Enzymatic degradation studies of the analogs were carried out using rat brain homogenate (10 mg protein/mL). To prepare, the homogenate rat brains were isolated, pooled and homogenized in a Polytron with 20 volumes of Tris.HCl (50 mM, pH 7.4), and the homogenate was then stored at −80°C until use. Aliquots of the homogenate (100 μL) were incubated with 100 μL of peptide (0.5 mM) over 0, 7.5, 15, 22.5, 30, and 60 min at 37 °C, in a final volume of 200 μL. The reaction was stopped at the required time by placing the tube on ice and acidifying the content with 20 μL of HCl (1 M). The aliquots were centrifuged at 20,000× g for 10 min at 4 °C. The supernatants were filtered over Millex-GV syringe filters (Millipore, Billerica, MA, USA) and analyzed by HPLC on a Vydac C18 column (4.6 mm × 250 mm, 5 μm,), using the solvent system of 0.1% TFA in water (A) and 80% acetonitrile in water containing 0.1% TFA (B) and a linear gradient of 0–100% B over 25 min. Three independent experiments for each assay were carried out. The amount of remaining peptide (area %) was calculated.

[3] = target: T2, human MOR (Homo sapiens, UniProt P35372); test: Calcium mobilization assay, agonist mode, MOR; assay type: cell-based; conditions: for MOR α ± SEM (efficacy, intrinsic activity): ratio of peptide Emax to Emax of dermorphin
T2 construct: expressed in transfected cells; host or cells: CHO cells (gift from Prof. Girolamo Calo, Ferrara University)
T2 sequence (P35372 whole entry): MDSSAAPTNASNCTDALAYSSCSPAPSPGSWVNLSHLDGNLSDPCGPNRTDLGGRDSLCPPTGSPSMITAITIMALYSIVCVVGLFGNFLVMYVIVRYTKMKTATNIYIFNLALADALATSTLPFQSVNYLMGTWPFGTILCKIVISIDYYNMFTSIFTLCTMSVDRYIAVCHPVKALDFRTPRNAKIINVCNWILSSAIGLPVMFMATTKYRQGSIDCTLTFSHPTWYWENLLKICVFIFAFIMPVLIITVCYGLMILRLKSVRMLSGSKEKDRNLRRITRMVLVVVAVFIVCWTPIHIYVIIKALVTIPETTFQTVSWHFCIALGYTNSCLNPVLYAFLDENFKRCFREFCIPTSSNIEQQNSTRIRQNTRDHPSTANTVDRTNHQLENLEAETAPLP

[4] = target: T3, DOR (Homo sapiens, UniProt P41143); test: Calcium mobilization assay, agonist mode, DOR; assay type: cell-based; set-up: expressed in transfected cells; host or cells: CHO cells (gift from Prof. Girolamo Calo, Ferrara University); conditions: CHO cells co-expressing DOR and GαqG66Di5, inactive = inactive up to 10 μM, n ≥ 5; for DOR pEC50 (CL95%): Fluo-4 AM, reference agonist DPDPE, mean ± SEM; for DOR α ± SEM (efficacy, intrinsic activity): ratio of peptide Emax to Emax of DPDPE
T3 sequence (P41143 whole entry): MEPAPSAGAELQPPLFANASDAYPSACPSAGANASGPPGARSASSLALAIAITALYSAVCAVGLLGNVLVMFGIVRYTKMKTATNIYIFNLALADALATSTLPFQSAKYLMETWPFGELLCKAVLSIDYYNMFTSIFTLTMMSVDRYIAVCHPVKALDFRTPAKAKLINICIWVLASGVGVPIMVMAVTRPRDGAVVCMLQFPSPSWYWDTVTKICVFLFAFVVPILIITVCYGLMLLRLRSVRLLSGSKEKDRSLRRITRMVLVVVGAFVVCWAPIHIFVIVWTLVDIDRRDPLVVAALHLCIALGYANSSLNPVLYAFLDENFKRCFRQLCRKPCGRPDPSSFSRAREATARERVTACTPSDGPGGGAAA
Protocol: as §1

[5] = target: T3, DOR; test: Calcium mobilization assay, antagonism of DPDPE at DOR
[6] = LC-MS elution order in reverse-phase chromatography to estimate lipophilicity; assay type: physicochemical; conditions: LC-MS (XIC); Aeris Peptide XB-C18 and Kinetex Biphenyl columns, identical order on both; gradient 5–80% acetonitrile in water in 10 min, 0.1% HCOOH
Text: The lipophilicity of compounds is often a useful characteristic allowing one to predict or rationalize their interactions with a given receptor [40]. Here, the liquid chromatography–mass spectrometry (LC-MS) procedure was applied to study the elution order of analogs in the reverse-phase chromatography to estimate their lipophilicity. The mixture of peptides 1–6 was run in the same experimental conditions on two types of columns, an Aeris Peptide C18 column and a novel biphenyl stationary phase HPLC column. The biphenyl column can be complementary to a C18 column, as it can engage in π–π interactions with the eluted compound [41]. As expected, peptides were more retained on the biphenyl column, due to the π stacking interactions of their aromatic rings with the solid support.
Figure 1 LC-MS chromatograms (extracted ion currents (XIC)) for peptides 1–6. Panel (A): Aeris Peptide XB-C18 column. Panel (B): Kinetex Biphenyl column. […]
Protected amino acids were purchased from Bachem AG (Bubendorf, Switzerland). p-Methylbenzhydrylamine (MBHA) resin was obtained from Novabiochem (San Diego, CA, USA). Semi-preparative and analytical RP-HPLC was performed using Waters Breeze instrument (Milford, MA, USA) with the dual absorbance detector (Waters 2487) on a Vydac C18 column (22 × 250 mm, 10 μm) and Vydac C18 column (4.6 × 250 mm, 5 μm), respectively. […]

[7] = CHO cells co-expressing human MOR and Gαqi5, inactive = inactive up to 10 μM, n ≥ 5

Structure (SMILES) | KOR pEC50 (CL95%) [1] | KOR α ± SEM (efficacy, intrinsic activity) [1] | remaining at 1 h, 0.25 mM [2] [%] | EC50 [3] [nM] | MOR α ± SEM (efficacy, intrinsic activity) [3, 7] | EC50 ([1]; read-out: KOR pEC50 (CL95%) (converted)) [nM] | DOR pEC50 (CL95%) [4] | DOR α ± SEM (efficacy, intrinsic activity) [4] | Kb [5] [nM] | MOR pEC50 (CL95%) ([3]; CHO cells co-expressing human MOR and Gαqi5, Fluo-4 AM, reference agonist dermorphin, inactive = inactive up to 10 μM, mean ± SEM, n ≥ 5) | Elution order in reverse-phase chromatography (lipophilicity) [6]
CC1(C)SSC(C)(C)[C@@H](NC(=O)[C@@H](N)Cc2ccc(O)cc2)C(=O)NCC(=O)N[C@@H](Cc2ccccc2)C(=O)N[C@H]1C(=O)O [DPDPE, reference compound] | inactive | inactive |  |  |  |  |  |  |  |  | 
Cc1cc(O)cc(C)c1C[C@H](N)C(=O)N1Cc2ccccc2C[C@H]1C(=O)N[C@@H]1CCCCNC(=O)C[C@@H](C(N)=O)NC(=O)[C@H](Cc2ccccc2)NC(=O)[C@H](Cc2ccccc2)NC1=O [compound 1, Dmt-Tic-c[D-Lys-Phe-Phe-Asp]NH2] (H-[Dmt][Tic][dK]FFD-NH2; lactam 3-6) |  | 0.20 ± 0.06 | 97.88 ± 0.83 | 661 | 0.15 ± 0.02 | 490 | inactive | inactive | 42.7 |  | 
Cc1cc(O)cc(C)c1C[C@H](N)C(=O)N1Cc2ccccc2C[C@H]1C(=O)N[C@@H]1CCCCNC(=O)C[C@@H](C(N)=O)NC(=O)[C@@H](Cc2ccc3ccccc3c2)NC(=O)[C@H](Cc2ccccc2)NC1=O [compound 2, Dmt-Tic-c[D-Lys-Phe-D-2Nal-Asp]NH2] (H-[Dmt][Tic][dK]F[d2Nal]D-NH2; lactam 3-6) | inactive | inactive | 98.17 ± 0.23 | 617 | 0.37 ± 0.05 |  | inactive | inactive | 28.2 |  | 
Cc1cc(O)cc(C)c1C[C@H](N)C(=O)N1Cc2ccccc2C[C@H]1C(=O)N[C@@H]1CCCCNC(=O)C[C@@H](C(N)=O)NC(=O)[C@H](Cc2ccc(F)cc2F)NC(=O)[C@H](Cc2ccccc2)NC1=O [compound 3, Dmt-Tic-c[D-Lys-Phe-2,4F2-Phe-Asp]NH2] (H-[Dmt][Tic][dK]F[Phe(2,4-F2)]D-NH2; lactam 3-6) |  |  | 95.19 ± 0.86 |  |  |  |  |  |  |  | 
Cc1cc(O)cc(C)c1C[C@H](N)C(=O)N1Cc2ccccc2C[C@H]1C(=O)N[C@@H]1CNC(=O)C[C@@H](C(N)=O)NC(=O)[C@H](Cc2ccccc2)NC(=O)[C@H](Cc2ccccc2)NC1=O [compound 4, Dmt-Tic-c[D-Dap-Phe-Phe-Asp]NH2] (H-[Dmt][Tic][dDap]FFD-NH2; lactam 3-6) | inactive | inactive | 96.21 ± 0.89 |  | inactive |  | inactive | inactive | 2.45 | inactive | 
Cc1cc(O)cc(C)c1C[C@H](N)C(=O)N1Cc2ccccc2C[C@H]1C(=O)N[C@@H]1CCCCNC(=O)C[C@@H](C(N)=O)NC(=O)[C@H](Cc2ccccc2)NC1=O [compound 5, Dmt-Tic-c[D-Lys-Phe-Asp]NH2] (H-[Dmt][Tic][dK]FD-NH2; lactam 3-5) | inactive | inactive | 96.76 ± 0.91 | 813 | 0.3 ± 0.03 |  | inactive | inactive | 0.525 |  | least lipophilic
Cc1cc(O)cc(C)c1C[C@H](NC(=O)[C@@H]1Cc2ccccc2CN1C(=O)[C@@H]1CC(=O)NCCCC[C@@H](NC(=O)[C@@H]2Cc3ccccc3CN2C(=O)[C@@H](N)Cc2c(C)cc(O)cc2C)C(=O)N[C@@H](Cc2ccccc2)C(=O)N1)C(N)=O [compound 6, Dmt-Tic-c[D-Lys-Phe-Asp]-Tic-Dmt-NH2] (H-[Dmt][Tic][dK]FD[Tic][Dmt]-NH2; lactam 3-5) | inactive | inactive | 97.6 ± 1.2 | 331 | 0.17 ± 0.20 |  | inactive | inactive | 1.1 |  | 
C[C@@H](NC(=O)[C@@H](N)Cc1ccc(O)cc1)C(=O)N[C@@H](Cc1ccccc1)C(=O)NCC(=O)N[C@@H](Cc1ccc(O)cc1)C(=O)N1CCC[C@H]1C(=O)N[C@@H](CO)C(N)=O [dermorphin, reference compound] | inactive | inactive |  |  | 1.00 |  | inactive | inactive |  |  | 
CC[C@H](C)[C@H](NC(=O)[C@H](CCCNC(=N)N)NC(=O)[C@H](CCCNC(=N)N)NC(=O)[C@H](CC(C)C)NC(=O)[C@H](Cc1ccccc1)NC(=O)CNC(=O)CNC(=O)[C@@H](N)Cc1ccc(O)cc1)C(=O)N[C@@H](CCCNC(=N)N)C(=O)N1CCC[C@H]1C(=O)N[C@@H](CCCCN)C(=O)N[C@@H](CC(C)C)C(=O)N[C@@H](CCCCN)C(=O)N[C@@H](Cc1c[nH]c2ccccc12)C(=O)N[C@@H](CC(=O)O)C(=O)N[C@@H](CC(N)=O)C(=O)N[C@@H](CCC(N)=O)C(=O)O [dynorphin A, reference compound] |  |  |  |  |  |  |  | 0.99 ± 0.04 |  |  | 
